Assays:
[1] = system: mThy1-hSNCA mice (substantia nigra / midbrain); assay: Brain immunostaining / immunohistochemistry in mThy1-hSNCA mice; format: in vivo, mouse; details: 3 mg/kg/day s.c.
Procedure: (§1) C57BL/6 N-Tg (Thy1-SNCA)15Mjff/J (JAX: 017682) breeders (C57Bl/6NJ genetic background) were purchased from Jackson Laboratories. The mice were mated, bred, and genotyped in the animal facility of Case Western Reserve University. All mice were maintained at a 12-hour light/dark cycle (on 6 am, off 6 pm). All randomization and peptide treatments in mThy1-hSNCA mice were prepared by an experimenter not associated with the behavioral and neuropathology analysis. Only male mice were used in the study. mThy1-hSNCA transgenic mice and their age-matched WT littermates were implanted with a 28-day subcutaneous osmotic pump (Alzet, Cupertino CA, Model 2004) containing either TAT control peptide or CS2 peptide, which delivered the peptides at indicated rate (1 or 3 or 10 mg/kg/day). The pump was replaced once every four weeks. All mice were sacrificed at age of 10-month for neuropathology assessment.
For immunofluorescence staining of mouse brain sections, mice were deeply anesthetized and transcardially perfused with 4% paraformaldehyde in PBS. Brain sections were washed in PBS 3 times and subjected for antigen retrieval in 0.01 M sodium citrate buffer with 0.05% TWEEN-20, followed by permeation with 0.2% Triton X-100 in PBS at room temperature for 10 min. Sections were then blocked with 10% normal goat serum in PBS and incubated with primary antibodies overnight at 4 °C and then stained with secondary antibodies. Images of the staining were acquired using Fluoview (FV3000) confocal microscope (Olympus).
Frozen brain sections (20 μm, coronal) were washed in PBS 3 times and subjected for antigen retrieval in 0.01 M sodium citrate buffer with 0.05% TWEEN-20. After washing 3 times in TBS, sections were then incubated in 3%H2O2/w methanol for 30 min at room temperature to quench endogenous peroxidase. After washing in TBS, sections were blocked in 10% normal goat serum with 1XTBST for one hour at room temperature and incubated with anti-pS129-αSyn (ab51253, clone EP1536Y, abcam) or anti- αSyn aggregates (MABN389, clone 5G4, Millipore) antibody in TBST overnight. Secondary antibody and DAB staining were provided by the IHC Select HRP/DAB kit (DAB150, Millipore). Hematoxylin QS (H-3404, Vector laboratory) was used to stain nucleus. The intensity of αSyn was conducted using Fiji ImageJ software. The same image exposure times and threshold settings were used for all sections from all treatment groups. Quantitation was performed blinded to the experimental groups.
Fig. 7 CS2 treatment is protective in mThy1-hSNCA mouse model of PD. (A) Experimental schematic of CS2 treatment in mThy1-hSNCA (Thy1) mouse model of PD: TAT or CS2 peptide was administered (3 mg/kg/day) via subcutaneous osmotic pump (O.P.) in Thy1 mice and their wild-type (WT) littermates starting from age of 4-month till 10-month. […] (D) Representative images of pS129-αSyn staining in substantia nigra of WT and Thy1 mice treated with TAT or CS2 peptide (scale bar = 100 μm). […] (G) Representative images of ClpP and tyrosine […] (TH) staining on the brain coronal sections from TAT or CS2-treated Thy1 mice and their WT littermates (scale bar = 100 μm). […] (H) Representative images of IBA1 and GFAP staining in the midbrain of TAT or CS2 treated Thy1 mice and their WT littermates (SN: substantia nigra) (scale bar = 180 μm).
(B) Representative images of αSyn aggregates staining (5G4) in substantia nigra of TAT or CS2 treated Thy1 mice (scale bar = 40µm).

[2] = system: mThy1-hSNCA mice; assay: Open-field test in mThy1-hSNCA mice; format: in vivo, mouse; details: 3 mg/kg/day s.c.; age of 8-month; n = 12-15 mice/group; vs TAT
Procedure: as §1
The locomotor activity of all experimental mice was assessed in an open field chamber at 8-month-old. Briefly, the mice were placed in the center of an activity chamber (Omnitech Electronics) and allowed to explore the chamber while being tracked using an automated infrared tracking system (Vertax, Omnitech Electronics). A 24-hour locomotor activity analysis was performed. Both horizontal and vertical activity/movements were recorded.

[3] = system: wild-type littermates; assay: Observed effects on wild-type littermates; format: in vivo, mouse; details: 3 mg/kg/day s.c.; WT littermates
Procedure: as §1
All behavioral analyses were conducted by an experimenter who was blinded to the genotypes and treatment groups. All mice were subjected to a series of behavioral measurements to monitor locomotor activity (open field test), spontaneous spatial working memory (Y-maze test), and motor coordination (Rotarod test).

[4] = system: SH-SY5Y cells; assay: Cytotoxicity by LDH in SH-SY5Y cells; format: cell-based
Procedure: The bimolecular fluorescence was examined 24-hour after transfection (n = 3, one-way ANOVA with Tukey’s post-hoc test, scale bar = 30 μm). (D) Quantification of the concentration (ng/ml) of extracellular αSyn monomer and oligomer, and intracellular αSyn oligomer in Tet-inducible SH-SY5Y cells that were pre-treated with TAT or CS2 peptide 30-minute before adding doxycycline (Dox) to induce αSyn expression. The concentration of αSyn species was determined by ELISA (n = 4, one-way ANOVA with Tukey’s post-hoc test; data are mean ± SEM). (E) Representative images of Mito-SOX staining in SH-SY5Y cells that were pre-treated with TAT or CS2 peptide and transfected with split Venus-αSyn vectors. Mitochondrial ROS production was determined by Mito-SOX staining after 24-hour transfection (n = 4, two-tailed Student’s t test, scale bar = 30 μm).
(G) Quantification of cytotoxicity examined by LDH assay in SH-SY5Y cells treated with indicated peptides (n = 3, one-way ANOVA with Tukey’s post-hoc test, data are mean ± SEM).

[5] = system: SH-SY5Y cells; assay: Cellular ATP in SH-SY5Y cells; format: cell-based
Procedure: Cells were seeded in 24-well plates, followed by the indicated treatment. The ATP level in each well was determined using the ATP assay kit according to the manufacturer’s procedures (Cayman Chemical, 700410).

[6] = midbrain, mThy1-hSNCA, n = 3 mice/group

CC(C)[C@H](NC(=O)CNC(=O)CNC(=O)CCCCCNC(=O)[C@H](CCCNC(=N)N)NC(=O)[C@H](CCCNC(=N)N)NC(=O)[C@H](CCCNC(=N)N)NC(=O)[C@H](CCC(N)=O)NC(=O)[C@H](CCCNC(=N)N)NC(=O)[C@H](CCCNC(=N)N)NC(=O)[C@H](CCCCN)NC(=O)[C@H](CCCCN)NC(=O)[C@H](CCCNC(=N)N)NC(=O)CNC(=O)[C@@H](N)Cc1ccc(O)cc1)C(=O)N[C@H](C(=O)N[C@H](C(=O)N[C@@H](C)C(=O)O)[C@@H](C)O)C(C)C [CS2, TAT-C6-GGVVTA]
ClpP level in midbrain DA neurons ([1]; TH+ neurons, immunostaining, n = 3 mice/group): restored by CS2 | IBA1 and GFAP in WT mice ([1]; WT mice): no effect in WT mice | GFAP (astrocyte) intensity [1, 6]: significantly attenuated both markers | IBA1 (microglia) intensity [1, 6]: significantly attenuated both markers | pS129-αSyn accumulation in SN ([1]; n = 3 mice/group): reduced by CS2 treatment | αSyn aggregates in SN (5G4) ([1]; n = 3 mice/group): reduced by CS2 treatment | locomotor activity, open field [2]: ameliorated locomotor activity | effects on wild-type littermates [3]: no observable effects on wild-type littermates | cell death, A53T-αSyn ([4]; SH-SY5Y stably overexpressing A53T-αSyn, 2-day treatment, 12-hour serum starvation, n = 4): significantly reduced cell death | cell death, WT-αSyn ([4]; SH-SY5Y stably overexpressing WT-αSyn, 2-day treatment, 12-hour serum starvation, n = 4): significantly reduced cell death | cell viability, healthy cells ([4]; healthy SH-SY5Y, 3 days, n = 3): did not affect cell viability | ATP content, αSyn-expressing cells ([5]; SH-SY5Y expressing WT- or A53T-αSyn, n = 6): rescued upon CS2 treatment | ATP production, healthy cells ([5]; healthy SH-SY5Y, n = 4): did not affect cell viability nor ATP production
